This is an account of results in US20240174744A1, “METHODS OF TREATMENT USING PROTEIN BINDERS TO IRHOM2 EPITOPES” (SCIRHOM GMBH, priority 2021, published 2024).

The assay deals with LPS-induced release of TNFα from PBMCs from healthy donors. Kind of assay: ELISA-based TNFα release assay, PBMCs from healthy donors. The assay is classed as cell-based. Conditions: Homo sapiens, PBMC; recombinant murine antibodies 1 μg/ml; Batimastat 10 μM; LPS 50 ng/ml, 2 hours. The protocol:
In the following study, ELISA-based TNFα release assays were performed to analyze the inhibitory effects of the antibodies of the present disclosure on LPS-induced release of endogenous TNFα from primary human material obtained from healthy donors using peripheral blood mononuclear cells (PBMCs).
In brief, on day 1, Nunc black MaxiSorp® 96-well plates (Thermo Fisher Scientific, USA) were coated overnight with 100 μl per well of mouse anti-human TNFα capture antibody (provided as part of the DuoSet ELISA kit) at 4 μg/ml TBS at 4° C. On day 2, the capture antibody solution was removed and MaxiSorp® plates were blocked with 300 μl per well of TBS, 1% BSA at room temperature for 3 hours. […] Using an infinite M1000 (Tecan Group, Switzerland) microplate reader, the fluorescence of each well was collected at an excitation wavelength of 435 nm and an emission wavelength of 555 nm.
In general terms: ELISA stands for enzyme-linked immunosorbent assay.

Each structure is given as a SMILES string.

A word on the inhibition: it is how much of the control response was suppressed. Regarding `CNC(=O)[C@H](Cc1ccccc1)NC(=O)[C@H](CC(C)C)[C@H](CSc1cccs1)C(=O)NO` [Batimastat], the inhibition at 10 µM came to 99.6%.
